± gives the standard deviation of the averaged measurements.
Legend:
Experiment in all cases: level (log10 ratio to DMSO vehicle control); higher = higher biomarker level / cell amount than vehicle control
[1] = compound: O=C(O)C(F)(F)C(F)(F)F [Perfluoropropanoic acid]; conditions: in DMSO
Description: (§1)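 BioMAP Diversity Plus panel of 12 human primary cell co-culture systems (3C, 4H, LPS, SAg, BT, BF4T, BE3C, CASM3C, HDF3CGF, KF3CT, MyoF, Mphg). Compounds were added 1 h before stimulation and left for 24 h (MyoF 48 h; BT 72 h for soluble read-outs or 6 d for IgG). Biomarkers were read by ELISA, cytotoxicity by SRB, PBMC viability and proliferation by Alamar Blue. Each well value was divided by the mean of 8 DMSO control wells on the same plate and log10 transformed; duplicate blinded samples were tested at 4 concentrations.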

[2] = compound: CCN(CCO)S(=O)(=O)C(F)(F)C(F)(F)C(F)(F)C(F)(F)C(F)(F)C(F)(F)C(F)(F)C(F)(F)F [N-Ethyl-N-(2-hydroxyethyl)perfluorooctanesulfonamide]; conditions: in DMSO
Description: as §1

[3] = compound: NC(=O)C(F)(F)C(F)(F)C(F)(F)F [Heptafluorobutyramide]; conditions: in DMSO
Description: as §1

[4] = compound: FC(F)C(F)(F)COCC1CO1 [((2,2,3,3-Tetrafluoropropoxy)methyl)oxirane]; conditions: in DMSO
Description: as §1

[5] = compound: O=C(O)C(F)(F)C(F)(F)C(F)(F)C(F)(F)C(F)(F)C(F)(F)C(F)(F)C(F)(F)C(F)(F)F [Perfluorodecanoic acid]; conditions: in DMSO
Description: as §1

[6] = compound: OCCCC(F)(F)C(F)(F)C(F)(F)C(F)(F)C(F)(F)C(F)(F)C(F)(F)F [7:3 Fluorotelomer alcohol]; conditions: 6700 nM; in DMSO
Description: as §1

[7] = compound: C=CC(=O)OCC(F)(F)C(F)(F)C(F)(F)C(F)(F)C(F)(F)C(F)(F)C(F)(F)F [1H,1H-Perfluorooctyl acrylate]; conditions: in DMSO
Description: as §1

Test System	level (log10) ([1]; 6700 nM)	level (log10) ([1]; 20000 nM)	level (log10) ([1]; 60000 nM)	level (log10) ([2]; 6700 nM)	level (log10) ([2]; 20000 nM)	level (log10) ([3]; 6700 nM)	level (log10) ([3]; 20000 nM)	level (log10) ([3]; 60000 nM)	level (log10) ([4]; 6700 nM)	level (log10) ([4]; 20000 nM)	level (log10) ([4]; 60000 nM)	level (log10) ([5]; 6700 nM)	level (log10) ([5]; 20000 nM)	level (log10) [6]	level (log10) ([7]; 6700 nM)	level (log10) ([7]; 20000 nM)	level (log10) ([7]; 60000 nM)
3C:Proliferation	0.019 ± 0.016	0.024 ± 0.073	-0.051 ± 0.083	-0.267 ± 0.087	-0.947 ± 0.17	0.006 ± 0.04	0.003 ± 0.051	-0.006 ± 0.045	-0.034 ± 0.016	-0.0165 ± 0.00071	-0.039 ± 0.02	0.0395 ± 0.032	0.0005 ± 0.044	-0.093 ± 0.095	-0.015 ± 0.017	-0.0805 ± 0.032	-0.214 ± 0.033
BE3C:CD54/ICAM-1	-0.025 ± 0.017	0 ± 0.0014	0.007 ± 0.016	0.0705 ± 0.033	0.0555 ± 0.013	-0.0195 ± 0.019	0.002 ± 0.0014	0.0035 ± 0.015	0.011 ± 0.011	-0.0035 ± 0.0092	0.011 ± 0.027	0.085	-1.02 ± 0.012	-0.0125 ± 0.00071	0.0055 ± 0.042	-0.011 ± 0.014	0.003 ± 0.014
LPS:CXCL8/IL-8	-0.013 ± 0.02	-0.001 ± 0.0085	-0.002 ± 0.0071	0.039 ± 0.0042	-0.003 ± 0.0028	-0.01 ± 0.038	-0.0025 ± 0.032	0.0115 ± 0.0078	-0.035 ± 0.038	-0.024 ± 0.031	0.004 ± 0.0014	0.027 ± 0.0071	0.0115 ± 0.0064	-0.0305 ± 0.011	0.004 ± 0.0042	0.0185 ± 0.0064	0.013 ± 0.016
LPS:M-CSF	0.006 ± 0.0028	-0.027 ± 0.0014	-0.0005 ± 0.037	0.0495 ± 0.033	0.104 ± 0.041	-0.003 ± 0.016	-0.006 ± 0.0014	-0.006 ± 0.0057	0.0075 ± 0.011	0.009 ± 0.017	-0.0155 ± 0.036	-0.0015 ± 0.015	-0.0045 ± 0.018	-0.006 ± 0.025	-0.001 ± 0.017	0.0045 ± 0.023	0.009 ± 0.0085
BF4T:CCL2/MCP-1	-0.0125 ± 0.011	-0.0095 ± 0.005	0.061 ± 0.083	-0.004 ± 0.013	-0.022 ± 0.0028	0.008 ± 0.058	-0.011 ± 0.04	0.014 ± 0.047	-0.0155 ± 0.019	-0.0095 ± 0.013	0.011 ± 0.044	-0.043 ± 0.03	-0.484 ± 0.11	-0.0115 ± 0.019	-0.0145 ± 0.0021	-0.0405 ± 0.0078	-0.027 ± 0.0014
SAg:CD69	-0.0175 ± 0.005	-0.019 ± 0.0042	-0.008 ± 0.023	-0.043 ± 0.016	-0.085 ± 0.04	0.031 ± 0.034	0.02 ± 0.016	0.0165 ± 0.05	-0.0225 ± 0.0078	-0.018 ± 0.014	0 ± 0.03	-0.0335 ± 0.015	-0.062 ± 0.0057	-0.026 ± 0.018	-0.0205 ± 0.021	-0.024 ± 0.011	-0.035 ± 0.018
BF4T:SRB	-0.002 ± 0.0028	-0.0025 ± 0.0064	-0.0055 ± 0.0064	-0.016 ± 0.0071	-0.027 ± 0.018	-0.01 ± 0.0085	-0.0075 ± 0.00071	-0.005 ± 0.0099	-0.0075 ± 0.0035	-0.006 ± 0.0057	0.002 ± 0.017	-0.001 ± 0.0071	-0.256 ± 0.0014	-0.008 ± 0.017	-0.003	-0.0055 ± 0.011	0.002 ± 0.025
BF4T:tPA	-0.006 ± 0.024	0.025 ± 0.047	0.037 ± 0.04	0.0595 ± 0.0064	0.067 ± 0.0028	-0.0065 ± 0.013	0.0015 ± 0.005	0.0135 ± 0.018	-0.009 ± 0.018	-0.001 ± 0.033	0.016 ± 0.064	-0.0185 ± 0.005	-0.18 ± 0.097	0.0105 ± 0.015	-0.0045 ± 0.013	0.0025 ± 0.0021	-0.0075 ± 0.025
BT:sTNF-alpha	0.0405 ± 0.06	0.058 ± 0.096	-0.0255 ± 0.11	-0.031 ± 0.082	-0.312 ± 0.1	0.0705 ± 0.096	-0.057 ± 0.025	-0.0225 ± 0.0035	0.0865 ± 0.025	0.0615 ± 0.023	-0.0195 ± 0.0021	0.0625 ± 0.047	0.018 ± 0.0099	0.009 ± 0.028	-0.029 ± 0.027	-0.0585 ± 0.044	-0.19 ± 0.043
SAg:CD38	0.0015 ± 0.043	0.023 ± 0.0085	0.029 ± 0.055	-0.027 ± 0.017	-0.0955 ± 0.012	-0.0315 ± 0.029	-0.03 ± 0.016	-0.021 ± 0.021	-0.007 ± 0.0014	-0.006 ± 0.011	0.002 ± 0.023	-0.009 ± 0.0014	-0.017 ± 0.0057	0.0245 ± 0.07	-0.016 ± 0.018	-0.009 ± 0.016	-0.02 ± 0.014
LPS:CD69	-0.001 ± 0.023	0.0035 ± 0.012	0.005 ± 0.027	-0.134 ± 0.0028	-0.226 ± 0.0042	0.028 ± 0.076	-0.0065 ± 0.056	-0.009 ± 0.069	0.0005 ± 0.022	-0.003 ± 0.0014	0.012 ± 0.041	-0.03 ± 0.011	-0.048 ± 0.0099	-0.007 ± 0.0014	0.0025 ± 0.0021	-0.0095 ± 0.0064	-0.0305 ± 0.005
LPS:CD142/Tissue Factor	0.001 ± 0.0028	0.0055 ± 0.028	0.0235 ± 0.0078	0.139 ± 0.038	0.312 ± 0.037	-0.0035 ± 0.028	0.002 ± 0.061	-0.0245 ± 0.047	0.013 ± 0.024	0.006 ± 0.0057	-0.019 ± 0.023	0.018 ± 0.0085	-0.011 ± 0.0028	-0.0245 ± 0.0064	0.0425 ± 0.018	0.051 ± 0.014	0.0525 ± 0.016
3C:CXCL9/MIG	-0.0005 ± 0.012	0.0025 ± 0.0064	0.0075 ± 0.019	-0.013 ± 0.0085	-0.006 ± 0.0085	-0.004 ± 0.016	-0.0115 ± 0.0064	-0.0065 ± 0.0078	0.0045 ± 0.013	-0.0065 ± 0.016	-0.0035 ± 0.0078	0.002	0.0005 ± 0.0064	-0.0135 ± 0.0035	0.0015 ± 0.0035	-0.002 ± 0.014	0.0115 ± 0.005
BE3C:EGFR	-0.0175 ± 0.036	0.0065 ± 0.012	0.035 ± 0.035	-0.02 ± 0.0014	-0.072 ± 0.0057	-0.008 ± 0.0028	-0.017 ± 0.011	0.004 ± 0.021	0.002 ± 0.0071	-0.021 ± 0.021	-0.0145 ± 0.012	-0.0135 ± 0.05	-0.149 ± 0.073	0.0115 ± 0.015	0.016 ± 0.0071	0.01 ± 0.025	0.02 ± 0.011
SAg:CCL2/MCP-1	-0.0055 ± 0.036	0.012 ± 0.016	0.0145 ± 0.042	-0.0055 ± 0.005	-0.091 ± 0.023	-0.0125 ± 0.015	-0.011 ± 0.0099	0.0085 ± 0.037	-0.0305 ± 0.046	-0.0185 ± 0.016	-0.014 ± 0.011	0.0065 ± 0.0064	-0.017 ± 0.0014	0.003 ± 0.0014	-0.014 ± 0.0071	-0.025 ± 0.0071	0.001 ± 0.024
BF4T:MMP-3	-0.018 ± 0.0028	0.0015 ± 0.026	0.0085 ± 0.028	-0.0145 ± 0.025	0.0505 ± 0.023	0.0075 ± 0.0021	-0.005 ± 0.02	0.0065 ± 0.012	0.0015 ± 0.00071	-0.0115 ± 0.026	0.0205 ± 0.059	0.0215 ± 0.023	-0.14 ± 0.075	-0.013 ± 0.014	-0.004 ± 0.0014	0.0205 ± 0.019	0.036 ± 0.0071
BT:Secreted IgG	0.036 ± 0.028	0.03 ± 0.0057	-0.004 ± 0.057	-0.002 ± 0.016	-1.16 ± 0.3	0.034 ± 0.0085	-0.005 ± 0.031	0.0285 ± 0.025	0.0295 ± 0.047	-0.003 ± 0.071	-0.0065 ± 0.098	-0.014 ± 0.033	-0.018 ± 0.02	-0.0105 ± 0.028	-0.0085 ± 0.015	-0.0455 ± 0.057	-0.132 ± 0.016
